Experimental data: PMC10590056, “Design and synthesis of cabotegravir derivatives bearing 1,2,3-triazole and evaluation of anti-liver cancer activity” (Frontiers in Pharmacology, 2023)
“And” between values parts separate entries of the source, which are not always exact repeats. Equal entries are not always repeated. Where two headings read alike, the source gives them in different places.

How the values were obtained:
Type in all cases: cell-based
HepG2 cells = experiment: MTT assay for cell proliferation and cytotoxicity, HepG2; parameters: key to Inhibitory rate: inhibition rate = 1 - mean A490 sample/mean A490 control (fraction)
Method in brief: (§1)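 Cells grown in DMEM with 10% FBS at 37 °C, 5% CO2, seeded at 10^5 cells/mL and exposed to KJ-5 or KJ-12 at 0–32 μM for 48 h. MTT added for 4 h, formazan dissolved in DMSO, A490 read; inhibition = (1 − sample/control A490) × 100%.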

KYSE-30 cells = experiment: MTT assay for cell proliferation, KYSE-30; parameters: key to Inhibitory rate: inhibition rate = 1 - mean A490 sample/mean A490 control (fraction)
Method in brief: as §1

normal hepatic cells L02 = experiment: MTT inhibition rate in normal hepatic cells L02; details: for Average OD / Inhibitory rate / ODtreated/ODcontrol: L02 cells, 3 repeat experiments; for Average OD: average of 5 wells; for Inhibitory rate / ODtreated/ODcontrol: fraction
p-H2AX in HepG2 cells = experiment: H2AX phosphorylation by immunofluorescence and Western blotting; details: HepG2, 24 h
Procedure: HepG2 cells were plated in laser confocal dishes (Nest, China), followed by the addition of KJ-5 or KJ-12 for 24 h. Then, 4% paraformaldehyde was added to each laser confocal dish for 20 min after rinsing with PBS. Before the goat serum was added to block for 1 h, 0.5% Triton X-100 was used to penetrate HepG2 for 30 min. Subsequently, the cells were incubated with p-H2AX (Cell Signaling Technology, MA, United States) at a 1:800 dilution at 4°C overnight. The cells were rinsed with PBS and incubated with Alexa Fluor 488 (Proteintech, Wuhan, China) at a 1:1000 dilution in dark at room temperature for 1 h. DAPI was used to stain the cell nucleus for 5 min. Then, the cells were rinsed with PBS before observing the cells under a laser confocal microscope (Nikon, Tokyo, Japan).
After being pretreated with either KJ-5 or KJ-12 at concentrations of 2, 4, or 8 μM for 24 h, the cells were harvested and lysed using an ice-cold cell lysis buffer from Beyotime Biotechnology (Shanghai, China). The proteins were mixed with a loading buffer and denatured by heating at 95°C–100°C for 5–10 min. Equal amounts of protein were loaded onto a 10% SDS-PAGE gel along with a molecular weight marker and separated by electrophoresis for 2 h. The separated proteins were transferred onto a PVDF membrane, which was blocked with 5% non-fat milk for non-specific binding sites on the membrane. […]

[1] = tested on: Bcl-2, Bax, cleaved caspase-9, cleaved caspase-3, cleaved PARP in HepG2 cells; experiment: Western blot of mitochondrial apoptotic proteins
Procedure: After being pretreated with either KJ-5 or KJ-12 at concentrations of 2, 4, or 8 μM for 24 h, the cells were harvested and lysed using an ice-cold cell lysis buffer from Beyotime Biotechnology (Shanghai, China). The proteins were mixed with a loading buffer and denatured by heating at 95°C–100°C for 5–10 min. Equal amounts of protein were loaded onto a 10% SDS-PAGE gel along with a molecular weight marker and separated by electrophoresis for 2 h. The separated proteins were transferred onto a PVDF membrane, which was blocked with 5% non-fat milk for non-specific binding sites on the membrane. Then, the membrane was incubated with primary antibodies at 4°C overnight. Following incubation with the primary antibody, the membrane was incubated with HRP-conjugated goat anti-rabbit or goat anti-mouse IgG at 37°C for 1 h. Protein bands were visualized on the PVDF membrane using an ECL hypersensitive chemiluminescence solution and a Bio-Rad gel imaging and analysis system.

[2] = HepG2, fraction, per experiment

**Q.** With COc1c2n(cc(C(=O)Nc3cccc(-c4cn(-c5c(C)cc(C)cc5C)nn4)c3)c1=O)C[C@H]1OC[C@H](C)N1C2=O [KJ-12] as the compound, how does the Inhibitory rate (HepG2 cells; [2]) read?
**A.** 0.742 and 0.7786 and 0.787

**Q.** And the ODtreated/ODcontrol (HepG2 cells; [2])?
**A.** 0.258 and 0.2214 and 0.213

**Q.** What about the inhibition at 4 µM (HepG2 cells; Homo sapiens, HepG2, liver cancer cells, 4 μM, read-out: Inhibition rate on liver cancer cells) of the same compound?
**A.** ~50%

**Q.** What about the IC50 (HepG2 cells; Homo sapiens, HepG2, 48 h, MTT) of the same compound?
**A.** 4.07 ± 0.09 µM

**Q.** And the inhibition at 16 µM (HepG2 cells; Homo sapiens, preliminary screening, HepG2, 16 μM, 48 h, mean±SD, unit inferred, read-out: Inhibition rate (16μM), 48 h, HepG2)?
**A.** 76.9 ± 2.4%

**Q.** And the IC50 (KYSE-30 cells; Homo sapiens, KYSE-30, 48 h, MTT, read-out: IC50 KYSE-30)?
**A.** 11.7 ± 0.21 µM

**Q.** What about the IC50 (KYSE-30 cells; Homo sapiens, KYSE-30, KYSE-30, one of three experiments, unit inferred, read-out: IC50, single experiment, KYSE-30) of the same compound?
**A.** 11.8 µM

**Q.** What about the inhibition at 16 µM (KYSE-30 cells; Homo sapiens, preliminary screening, KYSE-30, 16 μM, 48 h, mean±SD, unit inferred, read-out: Inhibition rate (16μM), 48 h, KYSE-30) of the same compound?
**A.** 56.1 ± 4.59%

**Q.** What about the ODtreated/ODcontrol (KYSE-30 cells; KYSE-30, first of three experiments) of the same compound?
**A.** 0.4595

**Q.** What about the Inhibitory rate (KYSE-30 cells; KYSE-30, given as fraction, first of three experiments) of the same compound?
**A.** 0.5405

**Q.** What about the Inhibitory rate (KYSE-30 cells; KYSE-30, given as fraction, second of three experiments) of the same compound?
**A.** 0.5295

**Q.** What about the Inhibitory rate (KYSE-30 cells; KYSE-30, given as fraction, third of three experiments) of the same compound?
**A.** 0.614

**Q.** And the Inhibitory rate (KYSE-30 cells; KYSE-30, group 1 (concentration), fraction, single experiments)?
**A.** 0.1337 and 0.126 and 0.1387

**Q.** And the ODtreated/ODcontrol (KYSE-30 cells; KYSE-30, group 1 (concentration), single experiments)?
**A.** 0.8663 and 0.874 and 0.8613

**Q.** And the Inhibitory rate (KYSE-30 cells; KYSE-30, group 2 (concentration), fraction, single experiments)?
**A.** 0.1741 and 0.1797 and 0.2087

**Q.** What about the ODtreated/ODcontrol (KYSE-30 cells; KYSE-30, group 2 (concentration), single experiments) of the same compound?
**A.** 0.8259 and 0.8203 and 0.7913

**Q.** And the Inhibitory rate (KYSE-30 cells; KYSE-30, group 4 (concentration), fraction, single experiments)?
**A.** 0.2947 and 0.287 and 0.2904

**Q.** And the ODtreated/ODcontrol (KYSE-30 cells; KYSE-30, group 4 (concentration), single experiments)?
**A.** 0.7053 and 0.713 and 0.7096

**Q.** What about the Inhibitory rate (KYSE-30 cells; KYSE-30, group 8 (concentration), fraction, single experiments) of the same compound?
**A.** 0.4545 and 0.4401 and 0.4294

**Q.** What about the ODtreated/ODcontrol (KYSE-30 cells; KYSE-30, group 8 (concentration), single experiments) of the same compound?
**A.** 0.5455 and 0.5599 and 0.5706

**Q.** What about the Inhibitory rate (KYSE-30 cells; KYSE-30, group 16 (concentration), fraction, single experiments) of the same compound?
**A.** 0.517 and 0.5136 and 0.5274

**Q.** What about the ODtreated/ODcontrol (KYSE-30 cells; KYSE-30, group 16 (concentration), single experiments) of the same compound?
**A.** 0.483 and 0.4864 and 0.4726

**Q.** What about the Inhibitory rate (KYSE-30 cells; KYSE-30, group 32 (concentration), fraction, single experiments) of the same compound?
**A.** 0.7126 and 0.7246 and 0.731

**Q.** And the ODtreated/ODcontrol (KYSE-30 cells; KYSE-30, group 32 (concentration), single experiments)?
**A.** 0.2874 and 0.2754 and 0.269

**Q.** What about the IC50 (KYSE-30 cells; KYSE-30, one of three experiments, unit inferred, read-out: IC50, single experiment, KYSE-30) of the same compound?
**A.** 11.9 µM and 11.5 µM

**Q.** What about the ODtreated/ODcontrol (KYSE-30 cells; KYSE-30, second of three experiments) of the same compound?
**A.** 0.4705

**Q.** And the ODtreated/ODcontrol (KYSE-30 cells; KYSE-30, third of three experiments)?
**A.** 0.386

**Q.** What about the inhibition at 1 µM (normal hepatic cells L02; Homo sapiens, L02, 48 h, L02, 1 μM, 48 h) of the same compound?
**A.** 10.8 ± 0.95%

**Q.** What about the inhibition at 2 µM (normal hepatic cells L02; Homo sapiens, L02, 48 h, L02, 2 μM, 48 h) of the same compound?
**A.** 13.6 ± 0.75%

**Q.** What about the inhibition at 4 µM (normal hepatic cells L02; Homo sapiens, L02, 48 h, L02, 4 μM, 48 h) of the same compound?
**A.** < 20%

**Q.** And the inhibition at 8 µM (normal hepatic cells L02; Homo sapiens, L02, 48 h, L02, 8 μM, 48 h)?
**A.** 22.3 ± 2.93%

**Q.** What about the inhibition at 16 µM (normal hepatic cells L02; Homo sapiens, L02, 48 h, L02, 16 μM, 48 h) of the same compound?
**A.** 30.5 ± 1.2%

**Q.** What about the “Average OD” value (normal hepatic cells L02; Group 1) of the same compound?
**A.** 1.123 and 1.0994 and 0.8196

**Q.** And the Inhibitory rate (normal hepatic cells L02; Group 1)?
**A.** 0.1145 and 0.1117 and 0.09678

**Q.** And the ODtreated/ODcontrol (normal hepatic cells L02; Group 1)?
**A.** 0.8855 and 0.8883 and 0.9032

**Q.** And the “Average OD” value (normal hepatic cells L02; Group 2)?
**A.** 1.1022 and 1.0518 and 0.793

**Q.** And the Inhibitory rate (normal hepatic cells L02; Group 2)?
**A.** 0.1433 and 0.1281 and 0.1359

**Q.** And the ODtreated/ODcontrol (normal hepatic cells L02; Group 2)?
**A.** 0.8567 and 0.8719 and 0.8641

**Q.** And the “Average OD” value (normal hepatic cells L02; Group 4)?
**A.** 1.0412 and 1.0106 and 0.783

**Q.** And the Inhibitory rate (normal hepatic cells L02; Group 4)?
**A.** 0.1541 and 0.1764 and 0.1697

**Q.** What about the ODtreated/ODcontrol (normal hepatic cells L02; Group 4) of the same compound?
**A.** 0.8459 and 0.8236 and 0.8303

**Q.** What about the “Average OD” value (normal hepatic cells L02; Group 8) of the same compound?
**A.** 1.0104 and 0.9056 and 0.7302

**Q.** What about the Inhibitory rate (normal hepatic cells L02; Group 8) of the same compound?
**A.** 0.2111 and 0.2008 and 0.256

**Q.** And the ODtreated/ODcontrol (normal hepatic cells L02; Group 8)?
**A.** 0.7889 and 0.7992 and 0.744

**Q.** What about the “Average OD” value (normal hepatic cells L02; Group 16) of the same compound?
**A.** 0.8912 and 0.8512 and 0.6312

**Q.** And the Inhibitory rate (normal hepatic cells L02; Group 16)?
**A.** 0.3181 and 0.295 and 0.3007

**Q.** What about the ODtreated/ODcontrol (normal hepatic cells L02; Group 16) of the same compound?
**A.** 0.6819 and 0.705 and 0.6993

**Q.** And the “Average OD” value (normal hepatic cells L02; Group 32)?
**A.** 0.7446 and 0.6962 and 0.5126

**Q.** And the Inhibitory rate (normal hepatic cells L02; Group 32)?
**A.** 0.4462 and 0.411 and 0.428

**Q.** And the ODtreated/ODcontrol (normal hepatic cells L02; Group 32)?
**A.** 0.5538 and 0.589 and 0.572

**Q.** And the “Expression of p-H2AX (DNA damage marker)” value (p-H2AX in HepG2 cells)?
**A.** increased the expression of p-H2AX

**Q.** What about the Bax levels ([1]; HepG2, 2, 4 or 8 μM, 24 h) of the same compound?
**A.** increased

**Q.** And the Bax/Bcl-2 ratio ([1]; HepG2, 2, 4 or 8 μM, 24 h)?
**A.** increased

**Q.** And the Bcl-2 protein levels ([1]; HepG2, 2, 4 or 8 μM, 24 h)?
**A.** decreased

**Q.** What about the “Expression of cleaved PARP” value ([1]; HepG2, vs control) of the same compound?
**A.** significant increase

**Q.** What about the “Expression of cleaved caspase-3” value ([1]; HepG2, vs control) of the same compound?
**A.** significant increase

**Q.** What about the “Expression of cleaved caspase-9” value ([1]; HepG2, vs control) of the same compound?
**A.** significant increase
